Assay results published in patent US4076814A, “Preventive and curative compositions against mycoplasmosis” (Sankyo Company Limited, priority 1975, dated 1978).
Converted amounts (≈) assume the structure as drawn. Structures can show the parent of a compound that is named as a salt. Where two headings read alike, the source gives them in different places.

Tests used:
Assay type in all cases: cell-based
Mycoplasma hyorhinis = experiment: Antimicrobial test, conventional agar plate dilution method, Mycoplasma hyorhinis; settings: for MIC: Mycoplasma, read-out: Minimum Inhibitory Concentration, Mycoplasma hyorhinis
Description: (§1) ANTIMICROBIAL TEST AGAINST THREE STRAINS OF MYCOPLASMA
(§2) The test was effected by a conventional agar plate dilution method using the indicated strains of mycoplasma. The dithiocarbamic acid derivatives as shown below with Compound Nos. were employed in the test.

Mycoplasma pulmonis = experiment: Antimicrobial test, conventional agar plate dilution method, Mycoplasma pulmonis; settings: for MIC: Mycoplasma, read-out: Minimum Inhibitory Concentration, Mycoplasma pulmonis
Description: as §1, §2

Mycoplasma gallisepticum = experiment: Antimicrobial test, conventional agar plate dilution method, Mycoplasma gallisepticum; settings: for MIC: Mycoplasmoides gallisepticum, read-out: Minimum Inhibitory Concentration, Mycoplasma gallisepticum
Description: as §1, §2

Compound	MIC (Mycoplasma hyorhinis)	MIC (Mycoplasma pulmonis)	MIC (Mycoplasma gallisepticum)	further results
CCN(CC)C(=S)SCc1cc(C)cc(C)c1O [compound 199, 2-Hydroxy-3,5-dimethylbenzyl diethyldithiocarbamate]	–	–	–	Minimum Inhibitory Concentration, Mycoplasma hyorhinis (Mycoplasma hyorhinis): 0.39 µg/mL; Minimum Inhibitory Concentration, Mycoplasma pulmonis (Mycoplasma pulmonis): 0.39 µg/mL; Minimum Inhibitory Concentration, Mycoplasma gallisepticum (Mycoplasma gallisepticum): 0.39 µg/mL
CN(C)C(=S)SCC1CCCC1=O (stereo not drawn) [Compound No. 1, 2-Oxocyclopentylmethyl dimethyldithiocarbamate]	0.05 µg/mL (≈ 0.23 µM)	0.05 µg/mL (≈ 0.23 µM)	0.05 µg/mL (≈ 0.23 µM)	–
Cc1cc2c(c(O)c1CSC(=S)N1CCN(C)CC1)C1OCC34CCCC(C)(C)C3CCC(C)(O2)C14 (stereo not drawn) [compound 273, 16-(4-Methyl-1-piperazinethiocarbonylthiomethyl)siccanin hydrochloride]	–	–	–	Minimum Inhibitory Concentration, Mycoplasma hyorhinis (Mycoplasma hyorhinis; hydrochloride): 0.78 µg/mL; Minimum Inhibitory Concentration, Mycoplasma pulmonis (Mycoplasma pulmonis; hydrochloride): 0.78 µg/mL; Minimum Inhibitory Concentration, Mycoplasma gallisepticum (Mycoplasma gallisepticum; hydrochloride): 0.78 µg/mL
Cc1cc(CSC(=S)N2CCCCC2)cc(C(C)(C)C)c1O [compound 207, 4-Hydroxy-3-t-butyl-5-methylbenzyl 1-piperidinecarbodithioate]	0.1 µg/mL (≈ 0.296 µM)	0.1 µg/mL (≈ 0.296 µM)	0.1 µg/mL (≈ 0.296 µM)	–
CC(=O)CCSC(=S)N(C)C [compound 78, 2-Acetylethyl dimethyldithiocarbamate]	0.025 µg/mL (≈ 0.131 µM)	0.05 µg/mL (≈ 0.261 µM)	0.05 µg/mL (≈ 0.261 µM)	–
CN(C)C(=S)SCCC(=O)c1cccnc1 [compound 69]	0.1 µg/mL (≈ 0.393 µM)	0.1 µg/mL (≈ 0.393 µM)	0.1 µg/mL (≈ 0.393 µM)	–
CN(C)C(=S)SCCC(=O)CCc1ccccc1 [compound 123, 2-Hydrocinnamoylethyl dimethyldithiocarbamate]	0.2 µg/mL (≈ 0.711 µM)	0.2 µg/mL (≈ 0.711 µM)	0.2 µg/mL (≈ 0.711 µM)	–
CCN(CC)C(=S)SCCC(=O)C=Cc1ccc(C)cc1 [compound 142, 2-(p-Methylcinnamoyl)ethyl diethyldithiocarbamate]	0.2 µg/mL (≈ 0.622 µM)	0.2 µg/mL (≈ 0.622 µM)	0.2 µg/mL (≈ 0.622 µM)	–
CN1CCN(C(=S)SCCC(=O)c2ccccc2)CC1.Cl [compound 34, 2-Benzoylethyl 4-methyl-1-piperazinecarbodithioate hydrochloride]	0.05 µg/mL	0.05 µg/mL	0.05 µg/mL	–
Cc1cc(CSC(=S)N2CCCCC2)cc(C)c1O [compound 192, 4-Hydroxy-3,5-dimethylbenzyl 1-piperidinecarbodithioate]	0.1 µg/mL (≈ 0.338 µM)	0.39 µg/mL (≈ 1.32 µM)	0.39 µg/mL (≈ 1.32 µM)	–

Further compounds by falling MIC (Mycoplasma hyorhinis), results first:

MIC (Mycoplasma hyorhinis)	MIC (Mycoplasma pulmonis)	MIC (Mycoplasma gallisepticum)	Compound	further results
3.13 µg/mL (≈ 9.92 µM)	3.13 µg/mL (≈ 9.92 µM)	3.13 µg/mL (≈ 9.92 µM)	O=c1cc(CO)oc(CSC(=S)N2CCCCC2)c1O [compound 261, 5-Hydroxy-2-hydroxymethyl-4-oxo-4H-pyran-6-ylmethyl-1-piperidinecarbodithioate]	–
1.56 µg/mL (≈ 4.61 µM)	1.56 µg/mL (≈ 4.61 µM)	1.56 µg/mL (≈ 4.61 µM)	Oc1c(Cl)cc(CSC(=S)N2CCOCC2)cc1Cl [compound 235, 4-Hydroxy-3,5-dichlorobenzyl 4-morpholinecarbodithioate]	–
0.78 µg/mL (≈ 1.98 µM)	0.78 µg/mL (≈ 1.98 µM)	0.78 µg/mL (≈ 1.98 µM)	CC(C)(C)c1cc(CSC(=S)N2CCCCCC2)cc(C(C)(C)C)c1O [compound 220, 4-Hydroxy-3,5-di-t-butylbenzyl 1-hexamethyleneiminecarbodithioate]	–
0.78 µg/mL (≈ 2.37 µM)	1.56 µg/mL (≈ 4.74 µM)	1.56 µg/mL (≈ 4.74 µM)	COc1cc(CSC(=S)N2CCOCC2)cc(OC)c1O [compound 230, 4-Hydroxy-3,5-dimethoxybenzyl 4-morpholinecarbodithioate]	–
0.78 µg/mL (≈ 2.62 µM)	1.56 µg/mL (≈ 5.24 µM)	1.56 µg/mL (≈ 5.24 µM)	Cc1cc(CSC(=S)N2CCOCC2)cc(C)c1O [compound 194, 4-Hydroxy-3,5-dimethylbenzyl 4-morpholinecarbodithioate]	–
0.39 µg/mL (≈ 1.25 µM)	0.2 µg/mL (≈ 0.642 µM)	0.2 µg/mL (≈ 0.642 µM)	O=C(CCSC(=S)N1CCOCC1)c1ccccc1O [compound 42, 2-(o-Hydroxybenzoyl)ethyl 4-morpholinecarbodithioate]	–
0.2 µg/mL (≈ 0.857 µM)	0.2 µg/mL (≈ 0.857 µM)	0.2 µg/mL (≈ 0.857 µM)	CN(C)C(=S)SCCC(=O)C(C)(C)C [compound 108, 2-Pivaroylethyl dimethyldithiocarbamate]	–
0.2 µg/mL (≈ 0.731 µM)	0.2 µg/mL (≈ 0.731 µM)	0.2 µg/mL (≈ 0.731 µM)	CCCCN(C)C(=S)SCC1CCCCC1=O (stereo not drawn) [compound 7, 2-Oxocyclohexylmethyl n-butylmethyldithiocarbamate]	–
0.2 µg/mL (≈ 0.497 µM)	0.1 µg/mL (≈ 0.248 µM)	0.1 µg/mL (≈ 0.248 µM)	CCCc1cc(CSC(=S)N(C)C)cc(CSC(=S)N(C)C)c1O [compound 248, 4-Hydroxy-5-dimethylthiocarbamoylthiomethyl-3-n-propylbenzyl dimethyldithiocarbamate]	–
0.2 µg/mL (≈ 0.771 µM)	0.2 µg/mL (≈ 0.771 µM)	0.2 µg/mL (≈ 0.771 µM)	CC(=O)CCSC(=S)N(C)C1CCCCC1 [compound 81, 2-Acetylethyl cyclohexylmethyldithiocarbamate]	–
0.05 µg/mL (≈ 0.214 µM)	0.05 µg/mL (≈ 0.214 µM)	0.05 µg/mL (≈ 0.214 µM)	CCN(CC)C(=S)SCC(C)C(C)=O (stereo not drawn) [compound 148, 2-Acetylpropyl diethyldithiocarbamate]	–
